# In ChEMBL document CHEMBL1817605, “Development of a highly selective fluorescence probe for alkaline phosphatase” (Bioorg Med Chem Lett, 2011):
# The source made the active and inactive calls. The rule behind the calls is not given here.
# What was measured:
# [1] = Ratio of Vmax to Km for alkaline phosphatase
# [2] = biological target: Serine/threonine-protein phosphatase PP1-alpha catalytic subunit (Homo sapiens) (UniProt P62136); experiment: Activity of PP1 alpha
# [3] = Activity of alkaline phosphatase by Michaelis-Menten equation analysis
# [4] = Activity of alkaline phosphatase at 2 uM measured every 2 mins from up to 30 mins by fluorometric analysis
# [5] = biological target: T1, Tyrosine-protein phosphatase non-receptor type 1 (Homo sapiens) (UniProt P18031); experiment: Activity of PTP1B
# T1 sequence (whole entry): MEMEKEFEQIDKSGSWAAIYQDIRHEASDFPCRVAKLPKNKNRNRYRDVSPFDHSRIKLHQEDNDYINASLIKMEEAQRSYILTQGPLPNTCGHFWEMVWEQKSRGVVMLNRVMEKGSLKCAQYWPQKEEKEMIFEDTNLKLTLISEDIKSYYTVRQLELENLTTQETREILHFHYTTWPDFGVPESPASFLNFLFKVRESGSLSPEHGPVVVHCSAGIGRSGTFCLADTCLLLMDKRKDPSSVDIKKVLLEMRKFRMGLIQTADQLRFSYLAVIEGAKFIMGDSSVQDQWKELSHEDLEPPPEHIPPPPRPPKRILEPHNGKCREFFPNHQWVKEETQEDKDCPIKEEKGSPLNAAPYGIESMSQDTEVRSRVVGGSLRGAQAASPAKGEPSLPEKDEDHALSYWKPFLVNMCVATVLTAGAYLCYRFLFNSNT
# Chain of Serine/threonine-protein phosphatase PP1-alpha catalytic subunit (Homo sapiens) (P62136 whole entry): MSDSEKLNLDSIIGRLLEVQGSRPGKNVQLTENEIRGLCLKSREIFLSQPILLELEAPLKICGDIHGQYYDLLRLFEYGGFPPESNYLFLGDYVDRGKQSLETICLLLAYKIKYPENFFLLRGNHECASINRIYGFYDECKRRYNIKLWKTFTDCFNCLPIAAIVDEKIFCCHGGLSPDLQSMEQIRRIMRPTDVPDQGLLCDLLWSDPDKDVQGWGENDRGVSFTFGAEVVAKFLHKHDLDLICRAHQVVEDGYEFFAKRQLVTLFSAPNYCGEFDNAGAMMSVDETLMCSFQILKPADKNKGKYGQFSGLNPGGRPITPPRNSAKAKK
Compound,Vmax/Km [1],Activity [2],Km [3],Vmax [3],Activity [4],Activity [5]
COc1ccc(-c2c3ccc(=O)cc-3oc3cc(OCOP(=O)(O)O)ccc23)c(C)c1,0.043 min⁻¹,inactive,0.77 µM,0.033 µM/min,Active,inactive
O=C1OC2(c3ccc(OP(=O)(O)O)cc3Oc3cc(OP(=O)(O)O)ccc32)c2ccccc21,,,,,Active,Active
COc1ccc(-c2c3ccc(=O)cc-3oc3cc(OP(=O)(O)O)ccc23)c(C)c1,0.026 min⁻¹,Active,0.96 µM,0.025 µM/min,Active,Active
